Data: patent US20250325534A1, “MICROBIOCIDAL TETRAHYDROISOQUINOLINE DERIVATIVES” (SYNGENTA CROP PROTECTION AG, priority 2021, published 2025)

Assays:
Assay type in all cases: cell-based
Monographella nivalis = Monographella nivalis (Microdochium nivale) / liquid culture (foot rot cereals); settings: 96 h, photometrically 4-5 days after application, read-out: control of Monographella nivalis
Procedure: (§1) Example B10: Monographella nivalis (Microdochium nivale)/Liquid Culture (Foot Rot Cereals) Conidia of the fungus from cryogenic storage are directly mixed into a nutrient broth (potato dextrose broth). After placing a DMSO solution of test compound into a microtiter plate (96-well format), the nutrient broth containing the fungal spores is added. The test plates are incubated at 24° C. and the inhibition of growth is determined photometrically 4-5 days after application.

[1] = tested on: Mycosphaerella graminicola; test: Mycosphaerella graminicola (Septoria tritici) / liquid culture (Septoria blotch); settings: Zymoseptoria tritici, 96 h, photometrically 4-5 days after application, read-out: control of Mycosphaerella graminicola
Procedure: as §1, with “B19: Mycosphaerella graminicola (Septoria tritici)/Liquid” for “B10: Monographella nivalis (Microdochium nivale)/Liquid”, “(Septoria Blotch)” for “(Foot Rot Cereals)”

Mycosphaerella arachidis = Mycosphaerella arachidis (Cercospora arachidicola) / liquid culture (early leaf spot); settings: 96 h, photometrically 4-5 days after application, read-out: control of Mycosphaerella arachidis
Procedure: as §1, with “B11: Mycosphaerella arachidis (Cercospora arachidicola)/Liquid” for “B10: Monographella nivalis (Microdochium nivale)/Liquid”, “(Early Leaf Spot)” for “(Foot Rot Cereals)”

SMILES	inhibition of growth at 20 ppm (Monographella nivalis)	inhibition of growth at 20 ppm [1]	inhibition of growth at 20 ppm (Mycosphaerella arachidis)
CC(=O)C1c2ccccc2C(c2cnn(C)c2)CN1C(=O)c1cc(-c2ccc(F)cc2F)on1 (centres unmarked) [Compound P-17, 1-[2-[5-(2,4-difluorophenyl)isoxazole-3-carbonyl]-4-(1-methylpyrazol-4-yl)-3,4-dihydro-1H-isoquinolin-1-yl]ethanone]	≥ 80%	≥ 80%	–
CC1c2ccc(OCC(F)F)cc2C(C)(c2cnn(C)c2)CN1C(=O)c1cc(-c2ccccc2)on1 (centres unmarked) [Compound P-26, [6-(2,2-difluoroethoxy)-1,4-dimethyl-4-(1-methylpyrazol-4-yl)-1,3-dihydroisoquinolin-2-yl]-(5-phenylisoxazol-3-yl)methanone]	–	≥ 80%	≥ 80%
CC1c2ccc(O)cc2C(C)(c2cnn(C)c2)CN1C(=O)c1cc(-c2ccc(F)cc2F)on1 (centres unmarked) [Compound P-35, [5-(2,4-difluorophenyl)isoxazol-3-yl]-[6-hydroxy-1,4-dimethyl-4-(1-methylpyrazol-4-yl)-1,3-dihydroisoquinolin-2-yl]methanone]	–	≥ 80%	≥ 80%
CCC1c2ccccc2C(c2cnn(C)c2)CN1C(=O)c1cc(-c2ccc(F)cc2F)on1 (centres unmarked) [Compound P-36, [5-(2,4-difluorophenyl)isoxazol-3-yl]-[1-ethyl-4-(1-methylpyrazol-4-yl)-3,4-dihydro-1H-isoquinolin-2-yl]methanone]	≥ 80%	≥ 80%	–
COc1ccc(-c2cc(C(=O)N3Cc4ccccc4C(c4cnn(C)c4)C3)no2)c(F)c1 (centres unmarked) [Compound P-74, [5-(2-fluoro-4-methoxy-phenyl)isoxazol-3-yl]-[4-(1-methylpyrazol-4-yl)-3,4-dihydro-1H-isoquinolin-2-yl]methanone]	≥ 80%	–	–
Cc1nn(C)c(C)c1C1c2ccccc2CN(C(=O)c2cc(-c3ccc(F)cc3F)on2)C1C (centres unmarked) [Compound P-113, [5-(2,4-difluorophenyl)isoxazol-3-yl]-[3-methyl-4-(1,3,5-trimethylpyrazol-4-yl)-3,4-dihydro-1H-isoquinolin-2-yl]methanone]	–	≥ 80%	–
CCn1nc(C)c(C2CN(C(=O)c3cc(-c4ccc(F)cc4F)on3)Cc3ccccc32)c1C (centres unmarked) [Compound P-116, [5-(2,4-difluorophenyl)isoxazol-3-yl]-[4-(1-ethyl-3,5-dimethyl-pyrazol-4-yl)-3,4-dihydro-1H-isoquinolin-2-yl]methanone]	–	≥ 80%	–
C#CCn1cc(C2CN(C(=O)c3cc(-c4ccccc4)on3)Cc3ccccc32)cn1 (centres unmarked) [Compound P-128, (5-phenylisoxazol-3-yl)-[4-(1-prop-2-ynylpyrazol-4-yl)-3,4-dihydro-1H-isoquinolin-2-yl]methanone]	–	≥ 80%	–
Cn1cc(C2CN(C(=O)c3cc(-c4c(F)cc(F)cc4F)no3)Cc3ccccc32)cn1 (centres unmarked) [Compound P-129, [4-(1-methylpyrazol-4-yl)-3,4-dihydro-1H-isoquinolin-2-yl]-[3-(2,4,6-trifluorophenyl)isoxazol-5-yl]methanone]	–	≥ 80%	–
Cn1cc(C2CN(C(=O)c3cc(-c4ccc(F)c(F)c4F)on3)Cc3ccccc32)cn1 (centres unmarked) [Compound P-144, [4-(1-methylpyrazol-4-yl)-3,4-dihydro-1H-isoquinolin-2-yl]-[5-(2,3,4-trifluorophenyl)isoxazol-3-yl]methanone]	–	≥ 80%	–
Cn1cc(C2CN(C(=O)c3coc(-c4ccccc4)c3)Cc3ccccc32)cn1 (centres unmarked) [Compound P-147, [4-(1-methylpyrazol-4-yl)-3,4-dihydro-1H-isoquinolin-2-yl]-(5-phenyl-3-furyl)methanone]	–	≥ 80%	–
Cn1cc(C2CN(C(=O)c3cc(-c4cccc(F)c4F)on3)Cc3ccccc32)cn1 (centres unmarked) [Compound P-150, [5-(2,3-difluorophenyl)isoxazol-3-yl]-[4-(1-methylpyrazol-4-yl)-3,4-dihydro-1H-isoquinolin-2-yl]methanone]	–	≥ 80%	–
Cn1cc(C2CN(C(=O)c3ncc(-c4ccccc4)s3)Cc3ccccc32)cn1 (centres unmarked) [Compound P-156, [4-(1-methylpyrazol-4-yl)-3,4-dihydro-1H-isoquinolin-2-yl]-(5-phenylthiazol-2-yl)methanone]	≥ 80%	≥ 80%	–
Cn1cc(C2CN(C(=O)c3cc(-c4ccc(F)cc4)no3)Cc3ccccc32)cn1 (centres unmarked) [Compound P-160, [3-(4-fluorophenyl)isoxazol-5-yl]-[4-(1-methylpyrazol-4-yl)-3,4-dihydro-1H-isoquinolin-2-yl]methanone]	≥ 80%	≥ 80%	–
Cn1cc(C2CN(C(=O)c3cc(-c4ccccc4)ns3)Cc3ccccc32)cn1 (centres unmarked) [Compound P-161, [4-(1-methylpyrazol-4-yl)-3,4-dihydro-1H-isoquinolin-2-yl]-(3-phenylisothiazol-5-yl)methanone]	–	≥ 80%	–
Cn1cc(C2CN(C(=O)c3cnc(-c4ccccc4)s3)Cc3ccccc32)cn1 (centres unmarked) [Compound P-164, [4-(1-methylpyrazol-4-yl)-3,4-dihydro-1H-isoquinolin-2-yl]-(2-phenylthiazol-5-yl)methanone]	≥ 80%	≥ 80%	–
COc1cccc(-c2cc(C(=O)N3Cc4ccccc4C(c4cnn(C)c4)C3)no2)c1 (centres unmarked) [Compound P-167, [5-(3-methoxyphenyl)isoxazol-3-yl]-[4-(1-methylpyrazol-4-yl)-3,4-dihydro-1H-isoquinolin-2-yl]methanone]	–	≥ 80%	–
Cn1cc(C2CN(C(=O)c3cc(C4CCCCC4)on3)Cc3ccccc32)cn1 (centres unmarked) [Compound P-177, (5-cyclohexylisoxazol-3-yl)-[4-(1-methylpyrazol-4-yl)-3,4-dihydro-1H-isoquinolin-2-yl]methanone]	≥ 80%	≥ 80%	–
Cn1cc(C2CN(C(=O)c3cc(C4(C)CC4)on3)Cc3ccccc32)cn1 (centres unmarked) [Compound P-184, [5-(1-methylcyclopropyl)isoxazol-3-yl]-[4-(1-methylpyrazol-4-yl)-3,4-dihydro-1H-isoquinolin-2-yl]methanone]	–	≥ 80%	–
Cn1cc(C2CN(C(=O)c3cc(C(C)(C)C)on3)Cc3ccccc32)cn1 (centres unmarked) [Compound P-195, (5-tert-butylisoxazol-3-yl)-[4-(1-methylpyrazol-4-yl)-3,4-dihydro-1H-isoquinolin-2-yl]methanone]	–	≥ 80%	–
Cn1cc(C2CN(C(=O)c3cc(-c4ccccc4Cl)on3)Cc3ccccc32)cn1 (centres unmarked) [Compound P-197, [5-(2-chlorophenyl)isoxazol-3-yl]-[4-(1-methylpyrazol-4-yl)-3,4-dihydro-1H-isoquinolin-2-yl]methanone]	≥ 80%	≥ 80%	–
Cn1cc(C2CN(C(=O)c3cc(C4CC4)on3)Cc3ccccc32)cn1 (centres unmarked) [Compound P-202, (5-cyclopropylisoxazol-3-yl)-[4-(1-methylpyrazol-4-yl)-3,4-dihydro-1H-isoquinolin-2-yl]methanone]	–	≥ 80%	–
CC(C)C1(c2cnn(C)c2)CN(C(=O)c2cc(-c3ccc(F)cc3F)on2)Cc2ccccc21 (centres unmarked) [Compound P-219, [5-(2,4-difluorophenyl)isoxazol-3-yl]-[4-isopropyl-4-(1-methylpyrazol-4-yl)-1,3-dihydroisoquinolin-2-yl]methanone]	–	≥ 80%	–
Cc1c(C2CN(C(=O)c3nnc(C4CC4)s3)Cc3ccccc32)cnn1C (centres unmarked) [Compound P-233, (5-cyclopropyl-1,3,4-thiadiazol-2-yl)-[4-(1,5-dimethylpyrazol-4-yl)-3,4-dihydro-1H-isoquinolin-2-yl]methanone]	–	≥ 80%	–
Cc1c(C2CN(C(=O)c3cc(C4CCCC4)on3)Cc3ccccc32)cnn1C (centres unmarked) [Compound P-235, (5-cyclopentylisoxazol-3-yl)-[4-(1,5-dimethylpyrazol-4-yl)-3,4-dihydro-1H-isoquinolin-2-yl]methanone]	–	≥ 80%	–
Cc1c(C2CN(C(=O)c3cc(C4CC4)on3)Cc3ccccc32)cnn1C (centres unmarked) [Compound P-237, (5-cyclopropylisoxazol-3-yl)-[4-(1,5-dimethylpyrazol-4-yl)-3,4-dihydro-1H-isoquinolin-2-yl]methanone]	–	≥ 80%	–
CCc1nnc(C(=O)N2Cc3ccccc3C(c3cnn(C)c3C)C2)s1 (centres unmarked) [Compound P-244, [4-(1,5-dimethylpyrazol-4-yl)-3,4-dihydro-1H-isoquinolin-2-yl]-(5-ethyl-1,3,4-thiadiazol-2-yl)methanone]	–	≥ 80%	–
CC(C)C1(c2cnn(C)c2)CN(C(=O)c2cc(-c3ccc(F)cc3F)on2)Cc2ccccc21 (centres unmarked) [Compound P-246, [5-(2,4-difluorophenyl)isoxazol-3-yl]-[4-isopropyl-4-(1-methylpyrazol-4-yl)-1,3-dihydroisoquinolin-2-yl]methanone]	≥ 80%	–	–
CCC1(c2cnn(C)c2)CN(C(=O)c2cc(-c3ccc(F)cc3F)on2)Cc2ccccc21 (centres unmarked) [Compound P-248, [5-(2,4-difluorophenyl)isoxazol-3-yl]-[4-ethyl-4-(1-methylpyrazol-4-yl)-1,3-dihydroisoquinolin-2-yl]methanone]	≥ 80%	–	–
